Assay results published in paper doi:10.1101/2021.01.13.426390v3 (biorxiv, 2021).

Target: T1, AGR3 (Homo sapiens, UniProt Q8TD06)
T1 sequence (Q8TD06 22-166): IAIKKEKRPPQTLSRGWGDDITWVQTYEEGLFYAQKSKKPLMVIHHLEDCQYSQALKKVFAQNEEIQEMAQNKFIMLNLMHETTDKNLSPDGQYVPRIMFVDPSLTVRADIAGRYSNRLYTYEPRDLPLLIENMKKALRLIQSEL
Experiment: biotin probe labelling, non-reducing SDS-PAGE, streptavidin-AP blot
Assay type: binding
Conditions: covalent; labelled compound; 30 uM probe, pH 7.4, 37 C

With `O=C(CCCC[C@@H]1SC[C@@H]2NC(=O)N[C@@H]21)NCC(=O)N1C[C@@H]2CS(=O)(=O)SC[C@H]2C1` (racemic) [Biotin-GlyPyrDTDO] the “biotin probe labelling, non-reducing SDS-PAGE, streptavidin-AP blot” value was “it was also labeled by Biotin-GlyPyrDTDO”.
